Some results are limits rather than exact numbers.

For this assay, the system named is PRMT5-mediated retention of exon 6 in the processed MDM4 mRNA in A375 tumor cells. Nature of the assay: Mouse A375 Xenograft Tumor MDM4 Exon5/6 RNA Splicing Assay. The settings on record: A-375, PO given QD or BID, tumors 4 hr after last dose, 4 days of dosing, read-out: dose achieving 50% effect (ED50). Type of assay: in vivo. As for the experimental part: The purpose of this assay is to measure the ability of a test compound to inhibit PRMT5-mediated retention of exon 6 in the processed MDM4 mRNA in A375 tumor cells in a mouse tumor xenograft model. This assay represents the effect of a test compound on specific PRMT5-mediated splicing events in tumors in an animal model.
Grow A375 cells in medium (DMEM high glucose/10% Hi FBS) at 37° C. in an incubator (5% CO2) for 18-24 hr. Mix the cells with MATRIGEL® (1:1) and implant the cells (5×10^6/animal) subcutaneously into the rear flank of the mice (female nude mice, Harlan). The implanted tumor cells grow as solid tumors. Measure the tumor volume and body weight twice a week with a caliper. After tumor volume reaches approximately 200-250 mm^3 (about 20 days after implant), randomize the animals, and group them into compound treatment groups. Administer the test compounds (formulated in SWFI with 1% HEC/0.25% TWEEN® 80/0.05% Antifoam) by oral gavage. Test compound doses are in the range of 3 to 100 mg/kg. Sacrifice mice 4 hr after the last dose (4 days of dosing).
Harvest tumor tissues and homogenize as described below. Place tumor samples in a bowl and add 1 mL of liquid N2. Squash the tumor in the bowl. Transfer small pieces of tumor (about 20 mg each) into 2 lysing matrix D tubes (MPBIO cat. #6913-250). Use one tube for RNA processing and the other for protein lysate preparation. For RNA processing, homogenize the tumor tissues in an RNEASY® Mini Kit (QIAGEN-74104) extraction buffer (0.5 mL each) for 30 seconds using a Bio101 FastPrep FP120 homogenizer (setting 6). Total RNA is purified with QUARTZY® RNEASY® Mini Kit −50 (QIAGEN-74104, RNEASY® Mini Handbook, Fourth Edition, June 2012). Check the RNA concentration to ensure OD 260/280 […]≧1.9. For cDNA synthesis use A&B APPLIED BIOSYSTEMS®, High Capacity cDNA Reverse Transcription Kit (cat. #4368813). Use 1 μg total RNA (10 μL) in each RT reaction volume of 20 μL, containing 10×RT Buffer—2.0 μL; 25×dNTP Mix (100 mM)—0.8 μL; 10×RT Random Primers—2.0 μL; MULTISCRIBE™ Reverse Transcriptase—1.0 μL; Nuclease-free H2O—[…]. […]
Broadly, the ED50 is the dose at which the effect has come halfway, by size or by number of responders. For `Nc1ncnc2c1ccn2[C@@H]1O[C@H]([C@H](O)c2ccccc2)[C@@H](O)[C@H]1O` [Example 2, (2R,3R,4S,5R)-2-(4-Aminopyrrolo[2,3-d]pyrimidin-7-yl)-5[(R)-hydroxy(phenyl)methyl]tetrahydrofuran-3,4-diol], the ED50 was ≤ 30 mg/kg.
With `C[C@@](O)(c1ccc(Cl)cc1)[C@H]1O[C@@H](n2ccc3c(N)ncnc32)[C@H](O)[C@@H]1O` [Example 3, (2R,3R,4S,5S)-2-(4-Aminopyrrolo[2,3-d]pyrimidin-7-yl)-5-[(1R)-1-(4-chlorophenyl)-1-hydroxy-ethyl]tetrahydrofuran-3,4-diol], the ED50 is ≤ 30 mg/kg.
For the compound `Nc1ncnc2c1ccn2[C@@H]1O[C@H]([C@H](O)c2ccc(Cl)cc2)[C@@H](O)[C@H]1O` [Example 1, (2R,3R,4S,5R)-2-(4-Aminopyrrolo[2,3-d]pyrimidin-7-yl)-5-[(R)-(4-chlorophenyl)-hydroxy-methyl]tetrahydrofuran-3,4-diol], the ED50 is ≤ 30 mg/kg.

(Values after US9840532B2, “5′-substituted nucleoside compounds” (Eli Lilly and Company, priority 2015, dated 2017).)
